Results from patent US10300014B2, “Nasolacrimal drainage system implants for drug therapy” (Mati Therapeutics Inc., priority 2006, dated 2019).
In brackets after ≈: the same amount, converted by molar mass.

Legend:
[1] = system: eye; experiment: sustained release doses of Bimatoprost, reduction in intraocular pressure; type: in vivo; settings: sustained release 20 to 200 ng daily, 0.2 to 2% of the daily drop dosage
Protocol: Commercially available solution concentrations of Bimatoprost are 0.03% by weight, often delivered once per day. Although the sustained release amount of Bimatnoprost released each day can vary, a sustained release of […] per day corresponds to about 2% of the 15 μg of Bimatoprost applied with a single drop of a 0.03% solution.

[2] = in water at 25° C.; cited from earlier work
[3] = system: eye; settings: cited from earlier work
[4] = topical drop, drug available to the eye; cited from earlier work

CCNC(=O)CCC/C=C\C[C@@H]1[C@@H](/C=C/[C@@H](O)CCc2ccccc2)[C@H](O)C[C@@H]1O [Bimatoprost]
reduction in intraocular pressure [1]: at least some reduction in intraocular pressure
aqueous solubility [2]: 300 µg/mL (≈ 722 µM)

CC(C)OC(=O)CCC/C=C\C[C@@H]1[C@@H](CC[C@@H](O)CCc2ccccc2)[C@H](O)C[C@@H]1O [Latanoprost]
duration of effective IOP lowering ([3]; about 200 ng of drug remaining on the eye after a Xalatan drop (2.5 μg)): at least 24 hours
IOP reduction relative to that of the 50 μg/mL QD dose ([3]; lowest doses of 12.5 μg/mL QD or 15 μg/mL BID, eye drops): 60-75%

CC(C)(C)NC[C@H](O)COc1nsnc1N1CCOCC1 [Timolol]
bioavailability [4]: 30-50%
